From ChEMBL document CHEMBL4020826 (J Med Chem, 2018)

Experiments:
Rattus norvegicus [1] = assay: Toxicity in Sprague-Dawley rat assessed as reduction in spontaneous locomotive activity at 30 mg/kg, sc after 90 mins; assay type: organism-based; set-up: scale not given: the % may be the effect or the level left; conditions: in vivo, 1.5 h
[2] = AUC in Sprague-Dawley rat at 3 mg/kg, sc measured over 8 hrs by LC-MS/MS analysis; assay type: ADME, organism-based; set-up: dose 3 mg/kg, time < 8 hr, route subcutaneous; conditions: in vivo
[3] = Plasma concentration in Sprague-Dawley rat at 0.3 mg/kg, sc administered as single dose measured after 1 hr post dose by LC-MS/MS analysis; assay type: ADME, organism-based
[4] = Plasma concentration in Sprague-Dawley rat at 5 mg/kg/day, sc administered via infusion measured after 12 hrs post dose by LC-MS/MS analysis; assay type: ADME, organism-based
[5] = biological target: Group II metabotropic glutamate receptor (mGlu2/mGlu3) (Rattus norvegicus, UniProt P31421+P31422); assay: Displacement of [3H]-LY459477 from mGlu2/3 receptor in Sprague-Dawley rat forebrain primary cortical membranes after 90 mins by liquid scintillation counting
[6] = Volume of distribution at steady state in Sprague-Dawley rat at 1 mg/kg, iv measured over 8 hrs by LC-MS/MS analysis; assay type: ADME, organism-based; conditions: in vivo, read-out: Vdss
[7] = Plasma concentration in Sprague-Dawley rat at 15 mg/kg/day, sc administered via infusion measured after 48 hrs post dose by LC-MS/MS analysis; assay type: ADME, organism-based
[8] = Cmax in Sprague-Dawley rat at 1 mg/kg, iv measured over 8 hrs by LC-MS/MS analysis; assay type: ADME, organism-based; set-up: dose 1 mg/kg, route intravenous; conditions: in vivo
[9] = Plasma concentration in Sprague-Dawley rat at 0.5 mg/kg/day, sc administered via infusion measured after 6 hrs post dose by LC-MS/MS analysis; assay type: ADME, organism-based
[10] = Tmax in Sprague-Dawley rat at 3 mg/kg, sc measured over 8 hrs by LC-MS/MS analysis; assay type: ADME, organism-based; conditions: in vivo
[11] = Drug level in Sprague-Dawley rat CSF at 0.5 mg/kg/day, sc administered via infusion measured after 72 hrs post dose by LC-MS/MS analysis; assay type: ADME, organism-based, Cerebrospinal fluid; conditions: read-out: Drug uptake
[12] = biological target: T1, Metabotropic glutamate receptor 5 (Homo sapiens, UniProt P41594); assay: Agonist activity at recombinant human mGlu5 receptor expressed in hamster AV12 cells co-expressing rat EAAT1/Galpha15 assessed as induction of increase in Ca2+ flux after 2.5 mins by Fluo-3 AM dye-based FLIPR assay; assay type: functional, cell-based
[13] = AUC in Sprague-Dawley rat at 1 mg/kg, iv measured over 8 hrs by LC-MS/MS analysis; assay type: ADME, organism-based; set-up: time < 8 hr, dose 1 mg/kg, route intravenous; conditions: in vivo
[14] = Aqueous solubility of the compound at pH 7.4; assay type: physicochemical; conditions: buffer
[15] = biological target: T2, Metabotropic glutamate receptor 7 (Homo sapiens, UniProt Q14831); assay: Agonist activity at recombinant human mGlu7 receptor expressed in hamster AV12 cells co-expressing rat EAAT1/Galpha15 assessed as induction of increase in Ca2+ flux after 2.5 mins by Fluo-3 AM dye-based FLIPR assay; assay type: functional, cell-based
[16] = biological target: Voltage-gated inwardly rectifying potassium channel KCNH2 (Homo sapiens, UniProt Q12809); assay: Displacement of [3H]-dofetilide from human ERG
[17] = Drug level in Sprague-Dawley rat CSF at 0.1 mg/kg, sc administered as single dose measured after 1 hr post dose by LC-MS/MS analysis; assay type: ADME, organism-based, Cerebrospinal fluid; conditions: read-out: Drug uptake
[18] = Drug level in Sprague-Dawley rat CSF at 5 mg/kg/day, sc administered via infusion measured after 72 hrs post dose by LC-MS/MS analysis; assay type: ADME, organism-based, Cerebrospinal fluid; conditions: read-out: Drug uptake
Rattus norvegicus [19] = organism: Rattus norvegicus; assay: Drug metabolism in Sprague-Dawley rat assessed as (1S,2S,4S,5R,6S)-di-tert-butyl 4-amino-2-(tert-butoxycarbonylamino)bicyclo[3.1.0]hexane-2,6-dicarboxylate formation measured over 24 hrs; assay type: ADME
Rattus norvegicus [20] = assay: Toxicity in Sprague-Dawley rat assessed as reduction in spontaneous locomotive activity at 30 mg/kg, sc after 30 mins; assay type: organism-based; set-up: scale not given: the % may be the effect or the level left; conditions: in vivo, 0.5 h
[21] = Plasma concentration in Sprague-Dawley rat at 15 mg/kg/day, sc administered via infusion measured after 12 hrs post dose by LC-MS/MS analysis; assay type: ADME, organism-based
[22] = biological target: T1, Metabotropic glutamate receptor 5; assay: Antagonist activity at recombinant human mGlu5 receptor expressed in hamster AV12 cells co-expressing rat EAAT1/Galpha15 assessed as inhibition of glutamate induced increase in Ca2+ flux after 2.5 mins by Fluo-3 AM dye-based FLIPR assay; assay type: functional, cell-based
[23] = Plasma concentration in Sprague-Dawley rat at 1.5 mg/kg/day, sc administered via infusion measured after 24 hrs post dose by LC-MS/MS analysis; assay type: ADME, organism-based
[24] = Drug level in Sprague-Dawley rat CSF at 3 mg/kg, sc administered as single dose measured after 1 hr post dose by LC-MS/MS analysis; assay type: ADME, organism-based, Cerebrospinal fluid; conditions: read-out: Drug uptake
[25] = Plasma concentration in Sprague-Dawley rat at 0.5 mg/kg/day, sc administered via infusion measured after 24 hrs post dose by LC-MS/MS analysis; assay type: ADME, organism-based
[26] = Plasma concentration in Sprague-Dawley rat at 15 mg/kg/day, sc administered via infusion measured after 72 hrs post dose by LC-MS/MS analysis; assay type: ADME, organism-based
[27] = biological target: Metabotropic glutamate receptor 8 (Homo sapiens, UniProt O00222); assay: Agonist activity at recombinant human mGlu8 receptor expressed in hamster AV12 cells co-expressing rat EAAT1/Galpha15 assessed as induction of increase in Ca2+ flux after 2.5 mins by Fluo-3 AM dye-based FLIPR assay; assay type: functional, cell-based
CYP2D6 = CYP2D6 (Homo sapiens, UniProt P10635); assay: Inhibition of human CYP2D6 at 10 uM; assay type: ADME
[28] = Plasma concentration in Sprague-Dawley rat at 0.5 mg/kg/day, sc administered via infusion measured after 12 hrs post dose by LC-MS/MS analysis; assay type: ADME, organism-based
[29] = Plasma concentration in Sprague-Dawley rat at 0.5 mg/kg/day, sc administered via infusion measured after 72 hrs post dose by LC-MS/MS analysis; assay type: ADME, organism-based
[30] = Drug level in Sprague-Dawley rat CSF at 1 mg/kg, sc administered as single dose measured after 1 hr post dose by LC-MS/MS analysis; assay type: ADME, organism-based, Cerebrospinal fluid; conditions: read-out: Drug uptake
[31] = biological target: T2, Metabotropic glutamate receptor 7; assay: Antagonist activity at recombinant human mGlu7 receptor expressed in hamster AV12 cells co-expressing rat EAAT1/Galpha15 assessed as inhibition of glutamate induced increase in Ca2+ flux after 2.5 mins by Fluo-3 AM dye-based FLIPR assay; assay type: functional, cell-based
CYP3A4 = CYP3A4 (Homo sapiens, UniProt P08684); assay: Inhibition of human CYP3A4 at 10 uM; assay type: ADME
[32] = Plasma concentration in Sprague-Dawley rat at 5 mg/kg/day, sc administered via infusion measured after 24 hrs post dose by LC-MS/MS analysis; assay type: ADME, organism-based
[33] = Fraction unbound in rat brain; assay type: ADME, tissue-based
[34] = Fraction unbound in rat plasma; assay type: ADME, cell-free
[35] = Drug metabolism in mouse liver microsomes at 4 uM; assay type: ADME, microsome; conditions: read-out: Drug metabolism

T1 sequence (P41594 whole entry): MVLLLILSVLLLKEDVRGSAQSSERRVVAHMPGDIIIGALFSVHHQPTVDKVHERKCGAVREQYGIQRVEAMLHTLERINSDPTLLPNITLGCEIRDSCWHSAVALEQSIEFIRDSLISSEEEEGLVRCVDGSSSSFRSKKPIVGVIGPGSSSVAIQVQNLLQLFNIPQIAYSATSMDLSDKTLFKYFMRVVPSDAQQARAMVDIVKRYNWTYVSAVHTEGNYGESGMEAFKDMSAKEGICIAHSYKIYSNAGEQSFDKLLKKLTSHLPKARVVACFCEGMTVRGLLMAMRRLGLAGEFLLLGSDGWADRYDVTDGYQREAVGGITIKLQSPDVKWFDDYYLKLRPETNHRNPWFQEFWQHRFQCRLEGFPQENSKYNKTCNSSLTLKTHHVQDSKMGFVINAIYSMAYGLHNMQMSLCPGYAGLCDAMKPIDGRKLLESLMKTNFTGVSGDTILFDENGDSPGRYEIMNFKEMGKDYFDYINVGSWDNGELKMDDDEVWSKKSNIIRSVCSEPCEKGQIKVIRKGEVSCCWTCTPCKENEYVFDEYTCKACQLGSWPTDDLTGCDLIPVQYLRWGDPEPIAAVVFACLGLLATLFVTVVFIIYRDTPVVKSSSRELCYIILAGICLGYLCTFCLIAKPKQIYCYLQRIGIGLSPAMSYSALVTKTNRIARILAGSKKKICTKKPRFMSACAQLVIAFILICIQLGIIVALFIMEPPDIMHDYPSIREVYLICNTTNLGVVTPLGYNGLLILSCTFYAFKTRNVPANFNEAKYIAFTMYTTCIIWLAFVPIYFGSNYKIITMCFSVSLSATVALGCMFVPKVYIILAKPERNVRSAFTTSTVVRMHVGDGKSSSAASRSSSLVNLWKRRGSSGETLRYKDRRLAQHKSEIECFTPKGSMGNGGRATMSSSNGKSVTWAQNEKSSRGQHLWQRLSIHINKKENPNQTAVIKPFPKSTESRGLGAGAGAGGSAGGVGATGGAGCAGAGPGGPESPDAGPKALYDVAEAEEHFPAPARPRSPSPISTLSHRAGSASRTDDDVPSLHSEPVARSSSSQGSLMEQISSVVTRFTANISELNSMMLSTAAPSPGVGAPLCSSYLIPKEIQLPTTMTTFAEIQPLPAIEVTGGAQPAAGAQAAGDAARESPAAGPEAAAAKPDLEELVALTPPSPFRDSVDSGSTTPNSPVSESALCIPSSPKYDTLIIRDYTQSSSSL
T2 sequence (Q14831 whole entry): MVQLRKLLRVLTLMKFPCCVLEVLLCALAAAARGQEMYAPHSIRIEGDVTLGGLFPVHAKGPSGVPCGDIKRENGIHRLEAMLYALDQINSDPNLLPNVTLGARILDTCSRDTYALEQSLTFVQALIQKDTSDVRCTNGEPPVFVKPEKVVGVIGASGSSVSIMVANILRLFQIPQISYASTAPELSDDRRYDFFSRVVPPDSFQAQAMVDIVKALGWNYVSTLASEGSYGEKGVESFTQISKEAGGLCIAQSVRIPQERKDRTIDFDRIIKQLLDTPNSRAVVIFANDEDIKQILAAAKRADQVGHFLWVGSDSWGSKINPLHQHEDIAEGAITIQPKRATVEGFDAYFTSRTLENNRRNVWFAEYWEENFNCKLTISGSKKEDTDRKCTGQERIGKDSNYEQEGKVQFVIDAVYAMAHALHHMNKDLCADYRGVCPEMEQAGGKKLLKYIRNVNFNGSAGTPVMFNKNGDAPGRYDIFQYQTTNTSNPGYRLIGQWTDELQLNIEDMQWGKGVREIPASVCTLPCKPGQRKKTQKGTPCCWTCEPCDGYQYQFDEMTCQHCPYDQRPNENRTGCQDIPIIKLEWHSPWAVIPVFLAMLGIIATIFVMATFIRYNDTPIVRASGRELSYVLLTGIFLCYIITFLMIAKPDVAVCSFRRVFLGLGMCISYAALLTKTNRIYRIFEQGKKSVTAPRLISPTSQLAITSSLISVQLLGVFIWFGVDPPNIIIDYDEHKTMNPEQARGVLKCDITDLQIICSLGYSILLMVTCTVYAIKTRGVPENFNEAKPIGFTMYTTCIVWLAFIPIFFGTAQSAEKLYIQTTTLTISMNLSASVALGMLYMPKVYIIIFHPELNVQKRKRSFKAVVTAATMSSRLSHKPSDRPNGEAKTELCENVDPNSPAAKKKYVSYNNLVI
CYP2D6, sequence (P10635 whole entry, the tested form may be a part): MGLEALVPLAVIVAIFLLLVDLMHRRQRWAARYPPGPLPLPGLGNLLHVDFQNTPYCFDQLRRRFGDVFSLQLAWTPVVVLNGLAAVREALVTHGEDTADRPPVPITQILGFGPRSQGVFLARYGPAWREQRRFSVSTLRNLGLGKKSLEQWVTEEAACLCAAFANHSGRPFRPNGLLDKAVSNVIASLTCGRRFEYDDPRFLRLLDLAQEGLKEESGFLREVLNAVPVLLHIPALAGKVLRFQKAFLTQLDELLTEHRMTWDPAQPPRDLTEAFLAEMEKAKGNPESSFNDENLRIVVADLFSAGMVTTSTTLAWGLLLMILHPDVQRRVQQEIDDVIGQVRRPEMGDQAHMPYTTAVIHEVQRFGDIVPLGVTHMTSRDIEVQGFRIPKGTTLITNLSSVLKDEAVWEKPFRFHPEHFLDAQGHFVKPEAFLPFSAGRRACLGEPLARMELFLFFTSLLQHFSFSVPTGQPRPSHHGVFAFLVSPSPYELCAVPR
CYP3A4, sequence (P08684 whole entry, the tested form may be a part): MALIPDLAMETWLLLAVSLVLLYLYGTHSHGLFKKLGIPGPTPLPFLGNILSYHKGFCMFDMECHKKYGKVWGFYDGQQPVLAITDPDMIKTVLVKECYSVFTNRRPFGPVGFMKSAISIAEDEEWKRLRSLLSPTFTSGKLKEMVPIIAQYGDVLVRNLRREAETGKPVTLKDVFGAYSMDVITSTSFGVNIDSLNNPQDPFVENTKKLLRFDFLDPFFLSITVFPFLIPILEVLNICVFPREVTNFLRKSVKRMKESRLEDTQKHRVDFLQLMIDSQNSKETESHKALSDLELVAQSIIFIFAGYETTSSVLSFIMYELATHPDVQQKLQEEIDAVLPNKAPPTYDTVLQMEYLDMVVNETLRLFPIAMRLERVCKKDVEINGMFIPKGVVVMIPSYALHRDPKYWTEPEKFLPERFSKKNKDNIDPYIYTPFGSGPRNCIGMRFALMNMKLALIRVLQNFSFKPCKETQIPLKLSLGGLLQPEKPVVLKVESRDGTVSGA
Voltage-gated inwardly rectifying potassium channel KCNH2, sequence (Q12809 whole entry): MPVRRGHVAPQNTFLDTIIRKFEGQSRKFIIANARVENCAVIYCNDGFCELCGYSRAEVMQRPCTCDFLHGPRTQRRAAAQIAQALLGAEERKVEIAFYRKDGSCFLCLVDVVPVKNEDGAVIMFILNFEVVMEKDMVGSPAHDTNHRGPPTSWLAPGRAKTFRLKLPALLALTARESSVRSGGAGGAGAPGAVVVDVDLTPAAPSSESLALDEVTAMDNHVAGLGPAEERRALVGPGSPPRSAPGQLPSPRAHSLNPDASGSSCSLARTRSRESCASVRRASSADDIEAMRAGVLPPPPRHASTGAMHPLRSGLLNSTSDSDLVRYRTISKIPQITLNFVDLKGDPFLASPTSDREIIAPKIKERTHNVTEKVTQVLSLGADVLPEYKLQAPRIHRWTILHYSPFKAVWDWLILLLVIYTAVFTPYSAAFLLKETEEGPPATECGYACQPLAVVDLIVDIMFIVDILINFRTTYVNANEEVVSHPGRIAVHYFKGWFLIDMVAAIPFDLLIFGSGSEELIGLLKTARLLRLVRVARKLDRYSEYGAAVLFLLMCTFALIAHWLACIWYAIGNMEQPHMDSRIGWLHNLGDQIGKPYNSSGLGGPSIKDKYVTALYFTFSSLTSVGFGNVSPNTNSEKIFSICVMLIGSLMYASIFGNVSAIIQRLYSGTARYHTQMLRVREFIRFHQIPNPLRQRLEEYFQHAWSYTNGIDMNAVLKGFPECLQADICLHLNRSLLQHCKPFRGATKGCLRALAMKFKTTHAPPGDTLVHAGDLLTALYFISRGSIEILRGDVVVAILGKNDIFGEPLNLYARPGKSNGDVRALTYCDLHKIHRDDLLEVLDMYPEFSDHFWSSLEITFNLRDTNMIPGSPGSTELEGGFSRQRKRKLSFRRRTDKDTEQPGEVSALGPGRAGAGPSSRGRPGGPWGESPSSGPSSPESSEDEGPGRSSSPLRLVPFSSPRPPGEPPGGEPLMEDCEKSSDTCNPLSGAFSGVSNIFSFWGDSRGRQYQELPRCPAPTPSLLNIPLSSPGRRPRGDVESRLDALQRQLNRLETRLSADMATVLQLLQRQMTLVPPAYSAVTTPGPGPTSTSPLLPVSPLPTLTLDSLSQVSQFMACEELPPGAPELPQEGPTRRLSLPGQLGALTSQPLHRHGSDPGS

Structure (SMILES): COc1cccc(C(=O)N[C@H]2C[C@@](N)(C(=O)O)[C@@H]3[C@@H](C(=O)O)[C@@H]32)c1
- Activity (Rattus norvegicus [1]): 36%
- AUC at 8 h [2]: 9.88 µM·h
- concentration at 1 h [3]: 771 nM
- concentration at 12 h [4]: 1260 nM
- Ki [5]: 0.106 µM
- Vd [6]: 1.17 L/kg
- concentration at 48 h [7]: 2130 nM
- Cmax [8]: 6390 nM
- concentration at 6 h [9]: 156 nM
- Tmax [10]: 26.4 min
- concentration at 72 h [11]: < 7.5 nM
- EC50 [12]: > 25 µM
- AUC at 8 h [13]: 2.75 µM·h
- solubility [14]: > 100 µM
- EC50 [15]: > 25 µM
- inhibition (INH) [16]: Not Active
- concentration at 1 h [17]: 2.48 nM
- concentration at 72 h [18]: 25.2 nM
- Drug metabolism (Rattus norvegicus [19]): < 2.5 nM
- Activity (Rattus norvegicus [20]): 32%
- concentration at 12 h [21]: 3070 nM
- IC50 [22]: > 12.5 µM
- concentration at 24 h [23]: 403 nM
- concentration at 1 h [24]: 73.6 nM
- concentration at 24 h [25]: 124 nM
- concentration at 72 h [26]: 3210 nM
- EC50 [27]: > 25 µM
- inhibition at 10 µM (CYP2D6): 0%
- concentration at 12 h [28]: 143 nM
- concentration at 72 h [29]: 91.2 nM
- concentration at 1 h [30]: 12.5 to 22.5 nM
- IC50 [31]: > 12.5 µM
- inhibition at 10 µM (CYP3A4): 3.6%
- concentration at 24 h [32]: 1300 nM
- fraction unbound [33]: 1
- fraction unbound [34]: 1
- metabolised at 4 µM [35]: 11.5%
